# Results taken from PubChem BioAssay AID2060912 (Molecular Pharmacology Branch, DTP, NCI, 2025).
# pIC50: −log10 of the molar value.
# System: HUVEC/MSC spheroids viability
# Assay: Human HUVEC/MSC cell line growth inhibition [KRAS2];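 as to viability, T/C: percent of DMSO vehicle control luminescence so 100% = untreated viability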
# Details: for pIC50: curve of first compound; for viability, T/C: stronger effect = lower value
# Outline: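 Spheroids of pooled-donor HUVEC and hMSC (passage ≤5) without tumour cells were treated with KRAS-pathway inhibitors alone and combined with targeted agents. Top concentration was at or near clinical Cmax, or 10 microM when Cmax was unknown, descending in half-log steps.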
smiles,measurement,setting,value
CCN1CCN(Cc2ccc(Nc3ncc(F)c(-c4cc(F)c5nc(C)n(C(C)C)c5c4)n3)nc2)CC1 + C=CC(=O)N1CCN(c2nc(=O)n(-c3c(C)ccnc3C(C)C)c3nc(-c4c(O)cccc4F)c(F)cc23)C(C)C1,pIC50,second compound 0.0316 µM,< 6.00
same,pIC50,second compound 0.1 µM,< 6.00
same,pIC50,second compound 0.316 µM,< 6.00
same,pIC50,second compound 1 µM,< 6.00
same,pIC50,second compound 3.16 µM,< 6.00
same,pIC50,second compound 10 µM,< 6.00
same,"viability, T/C","second compound 0.0316 µM, first compound 0.00316 µM",76%
same,"viability, T/C","second compound 0.0316 µM, first compound 0.01 µM",95.8%
same,"viability, T/C","second compound 0.0316 µM, first compound 0.0316 µM",93.7%
same,"viability, T/C","second compound 0.0316 µM, first compound 0.1 µM",86.6%
same,"viability, T/C","second compound 0.0316 µM, first compound 0.316 µM",129%
same,"viability, T/C","second compound 0.0316 µM, first compound 1 µM",107%
same,"viability, T/C","second compound 0.1 µM, first compound 0.00316 µM",96.8%
same,"viability, T/C","second compound 0.1 µM, first compound 0.01 µM",102%
same,"viability, T/C","second compound 0.1 µM, first compound 0.0316 µM",85.1%
same,"viability, T/C","second compound 0.1 µM, first compound 0.1 µM",82.9%
same,"viability, T/C","second compound 0.1 µM, first compound 0.316 µM",129%
same,"viability, T/C","second compound 0.1 µM, first compound 1 µM",116%
same,"viability, T/C","second compound 0.316 µM, first compound 0.00316 µM",113%
same,"viability, T/C","second compound 0.316 µM, first compound 0.01 µM",106%
same,"viability, T/C","second compound 0.316 µM, first compound 0.0316 µM",98%
same,"viability, T/C","second compound 0.316 µM, first compound 0.1 µM",87.2%
same,"viability, T/C","second compound 0.316 µM, first compound 0.316 µM",112%
same,"viability, T/C","second compound 0.316 µM, first compound 1 µM",123%
same,"viability, T/C","second compound 1 µM, first compound 0.00316 µM",118%
same,"viability, T/C","second compound 1 µM, first compound 0.01 µM",109%
same,"viability, T/C","second compound 1 µM, first compound 0.0316 µM",109%
same,"viability, T/C","second compound 1 µM, first compound 0.1 µM",119%
same,"viability, T/C","second compound 1 µM, first compound 0.316 µM",119%
same,"viability, T/C","second compound 1 µM, first compound 1 µM",133%
same,"viability, T/C","second compound 3.16 µM, first compound 0.00316 µM",127%
same,"viability, T/C","second compound 3.16 µM, first compound 0.01 µM",111%
same,"viability, T/C","second compound 3.16 µM, first compound 0.0316 µM",132%
same,"viability, T/C","second compound 3.16 µM, first compound 0.1 µM",121%
same,"viability, T/C","second compound 3.16 µM, first compound 0.316 µM",138%
same,"viability, T/C","second compound 3.16 µM, first compound 1 µM",162%
same,"viability, T/C","second compound 10 µM, first compound 0.00316 µM",149%
same,"viability, T/C","second compound 10 µM, first compound 0.01 µM",154%
same,"viability, T/C","second compound 10 µM, first compound 0.0316 µM",130%
same,"viability, T/C","second compound 10 µM, first compound 0.1 µM",134%
same,"viability, T/C","second compound 10 µM, first compound 0.316 µM",118%
same,"viability, T/C","second compound 10 µM, first compound 1 µM",162%
CC1COCCN1c1cc(-c2ccnn2C)c2ccnc(-c3ccn[nH]3)c2n1 (centres undefined) + C=CC(=O)N1CCN(c2nc(=O)n(-c3c(C)ccnc3C(C)C)c3nc(-c4c(O)cccc4F)c(F)cc23)C(C)C1,pIC50,second compound 0.0316 µM,5.60
same,pIC50,second compound 0.1 µM,< 5.52
same,pIC50,second compound 0.316 µM,5.56
same,pIC50,second compound 1 µM,< 5.52
same,pIC50,second compound 3.16 µM,< 5.52
same,pIC50,second compound 10 µM,< 5.52
same,"viability, T/C","second compound 0.0316 µM, first compound 0.00949 µM",82.3%
same,"viability, T/C","second compound 0.0316 µM, first compound 0.03 µM",97.5%
same,"viability, T/C","second compound 0.0316 µM, first compound 0.0949 µM",75%
same,"viability, T/C","second compound 0.0316 µM, first compound 0.3 µM",73.2%
same,"viability, T/C","second compound 0.0316 µM, first compound 0.949 µM",64.6%
same,"viability, T/C","second compound 0.0316 µM, first compound 3 µM",47.4%
same,"viability, T/C","second compound 0.1 µM, first compound 0.00949 µM",113%
same,"viability, T/C","second compound 0.1 µM, first compound 0.03 µM",83.7%
same,"viability, T/C","second compound 0.1 µM, first compound 0.0949 µM",96.6%
same,"viability, T/C","second compound 0.1 µM, first compound 0.3 µM",83.2%
same,"viability, T/C","second compound 0.1 µM, first compound 0.949 µM",50.7%
same,"viability, T/C","second compound 0.1 µM, first compound 3 µM",51.8%
same,"viability, T/C","second compound 0.316 µM, first compound 0.00949 µM",114%
same,"viability, T/C","second compound 0.316 µM, first compound 0.03 µM",105%
same,"viability, T/C","second compound 0.316 µM, first compound 0.0949 µM",94.2%
same,"viability, T/C","second compound 0.316 µM, first compound 0.3 µM",75.5%
same,"viability, T/C","second compound 0.316 µM, first compound 0.949 µM",63.3%
same,"viability, T/C","second compound 0.316 µM, first compound 3 µM",48.6%
same,"viability, T/C","second compound 1 µM, first compound 0.00949 µM",108%
same,"viability, T/C","second compound 1 µM, first compound 0.03 µM",119%
same,"viability, T/C","second compound 1 µM, first compound 0.0949 µM",96.2%
same,"viability, T/C","second compound 1 µM, first compound 0.3 µM",76.3%
same,"viability, T/C","second compound 1 µM, first compound 0.949 µM",76%
same,"viability, T/C","second compound 1 µM, first compound 3 µM",54.6%
same,"viability, T/C","second compound 3.16 µM, first compound 0.00949 µM",103%
same,"viability, T/C","second compound 3.16 µM, first compound 0.03 µM",117%
same,"viability, T/C","second compound 3.16 µM, first compound 0.0949 µM",101%
same,"viability, T/C","second compound 3.16 µM, first compound 0.3 µM",88.5%
same,"viability, T/C","second compound 3.16 µM, first compound 0.949 µM",73.2%
same,"viability, T/C","second compound 3.16 µM, first compound 3 µM",74.8%
same,"viability, T/C","second compound 10 µM, first compound 0.00949 µM",121%
same,"viability, T/C","second compound 10 µM, first compound 0.03 µM",123%
same,"viability, T/C","second compound 10 µM, first compound 0.0949 µM",115%
same,"viability, T/C","second compound 10 µM, first compound 0.3 µM",102%
same,"viability, T/C","second compound 10 µM, first compound 0.949 µM",72%
same,"viability, T/C","second compound 10 µM, first compound 3 µM",77.1%
